ChEMBL document CHEMBL1126122, “Non-prostanoid thromboxane A2 receptor antagonists with a dibenzoxepin ring system. 2” (J Med Chem, 1992)

species: Cavia porcellus; assay: Compound was tested for its binding affinity at TXA2/PGH2 receptor by measuring its ability to displace [3H]U-46619 from guinea pig platelets at 0.1 uM; details: not given

Row | inhibition | Compound
1 | 4% | Cc1nc2ccccc2n1C/C=C1\c2ccccc2COc2ccc(C(=O)O)cc21
2 | 6% | Cc1cc2ncn(C/C=C3\c4ccccc4COc4ccc(C(=O)Nc5ccccc5C(=O)O)cc43)c2cc1C
3 | -4% | Cc1cc2ncn(C/C=C3\c4ccccc4COc4ccc(C(=O)N5CCOCC5)cc43)c2cc1C
4 | 35% | O=C(O)c1ccc2c(c1)/C(=C/Cn1nnc3ccccc31)c1ccccc1CO2
5 | 50% | O=C(O)c1ccc2c(c1)/C(=C\CCNS(=O)(=O)c1ccccc1)c1ccccc1CO2
6 | 31% | COC(=O)c1ccc2c(c1)/C(=C/Cn1cnc3cc(C)c(C)cc31)c1ccccc1CO2
7 | -6% | O=C(O)c1ccc2c(c1)/C(=C/Cn1cnc3cnccc31)c1ccccc1CO2

Row | Compound | inhibition
8 | O=C(O)c1ccc2c(c1)C(SCCn1cnc3ccccc31)c1ccccc1CO2 (stereo not drawn) | 9%

biological target: not listed separately; assay: Binding affinity at TXA2/PGH2 receptor by measuring its ability to displace [3H]U-46619 from guinea pig platelets; details: not given

Row | Compound | Ki
9 | O=C(O)c1ccc2c(c1)C(SCCNS(=O)(=O)c1ccccc1)c1ccccc1CO2 (stereo not drawn) | 32 nM

same assay, conditions: Cavia porcellus; concentration not given here

Row | inhibition | Compound
10 | -6% | O=C(O)c1ccc2c(c1)/C(=C/CCNS(=O)(=O)c1ccccc1)c1ccccc1CO2

system: not listed separately; assay: Binding affinity at Thromboxane A2/ Prostaglandin H2 receptor by measuring its ability to displace [3H]U-46619 from guinea pig platelets at a compound concentration of 0.1 uM; details: Cavia porcellus

Row | inhibition | Compound
11 | 11% | CSc1nc2ccccc2n1C/C=C1\c2ccccc2COc2ccc(C(=O)O)cc21

species: Cavia porcellus; assay: Inhibitory effect on the U-46619 induced platelet aggregation was determined ex vivo in the guinea pig; format: functional; details: not given

Row | Compound | Aggregation | Inhibition of U-46619-induced platelet aggregation
12 | O=C(O)Cc1ccc(CCNS(=O)(=O)c2ccc(Cl)cc2)cc1 [DALTROBAN] | 0% | 
13 | O=C(O)c1ccc2c(c1)/C(=C/CNS(=O)(=O)c1ccccc1)c1ccccc1CO2 |  | 25%
14 | O=C(O)c1ccc2c(c1)C(SCCc1nc3ccccc3[nH]1)c1ccccc1CO2 (stereo not drawn) |  | 66.3%
15 | O=C(O)c1ccc2c(c1)C(SCCNS(=O)(=O)c1ccccc1)c1ccccc1CO2 (stereo not drawn) |  | 11.8%
16 | O=C([O-])c1ccc2c(c1)/C(=C\Cn1cnc3ccccc31)c1ccccc1CO2.[Na+] |  | 0%
17 | O=C(O)c1ccc2c(c1)/C(=C\CCNS(=O)(=O)c1ccccc1)c1ccccc1CO2 |  | 59.3%

system: not listed separately; assay: Binding affinity at TXA2/PGH2 receptor by displacement of [3H]U-46619 from human platelets; details: not given

Row | Compound | Ki
18 | Cc1cccc2ncn(C/C=C3\c4ccccc4COc4ccc(C(=O)O)cc43)c12 | 8 nM
19 | O=C(O)c1ccc2c(c1)/C(=C/Cn1cnc3cc(C(=O)NCc4ccccc4)ccc31)c1ccccc1CO2 | 7.4 nM
20 | O=C(O)c1ccc2c(c1)/C(=C/Cn1cnc3ccc(C(=O)NCc4ccccc4)cc31)c1ccccc1CO2 | 14 nM
21 | Cc1cc2ncn(C/C=C3\c4ccccc4COc4ccc(C(=O)O)cc43)c2cc1C | 1.2 nM
22 | Cc1cccc2c1ncn2C/C=C1\c2ccccc2COc2ccc(C(=O)O)cc21 | 38 nM
23 | O=C(O)c1ccc2c(c1)/C(=C/Cn1cnc3cc(F)ccc31)c1ccccc1CO2 | 15 nM
24 | O=C(O)c1ccc2c(c1)/C(=C/Cn1cnc3cc4c(cc31)OCO4)c1ccccc1CO2 | 3.8 nM
25 | O=C(O)c1ccc2c(c1)/C(=C/Cn1cnc3cc(Cl)ccc31)c1ccccc1CO2 | 11 nM
26 | COc1ccc2ncn(C/C=C3\c4ccccc4COc4ccc(C(=O)O)cc43)c2c1 | 7.4 nM
27 | COc1cc(OC)c2ncn(C/C=C3\c4ccccc4COc4ccc(C(=O)O)cc43)c2c1 | 9.1 nM
28 | O=C(O)c1ccc2c(c1)/C(=C/Cn1cnc3cc(C(F)(F)F)ccc31)c1ccccc1CO2 | 85 nM
29 | Cc1ccc2ncn(C/C=C3\c4ccccc4COc4ccc(C(=O)O)cc43)c2c1 | 12 nM
30 | Cc1ccc2c(ncn2C/C=C2\c3ccccc3COc3ccc(C(=O)O)cc32)c1C | 46 nM
31 | COc1ccc2c(c1)ncn2C/C=C1\c2ccccc2COc2ccc(C(=O)O)cc21 | 17 nM
32 | O=C(O)c1ccc2c(c1)/C(=C/Cn1cnc3cc([N+](=O)[O-])ccc31)c1ccccc1CO2 | 9.2 nM
33 | COc1cc2ncn(C/C=C3\c4ccccc4COc4ccc(C(=O)O)cc43)c2cc1OC | 2.2 nM
34 | O=C(O)c1ccc2c(c1)/C(=C/Cn1cnc3ccc([N+](=O)[O-])cc31)c1ccccc1CO2 | 9.1 nM
35 | COc1cc(OC)c2c(c1)ncn2C/C=C1\c2ccccc2COc2ccc(C(=O)O)cc21 | 6.7 nM
36 | O=C(O)c1ccc2c(c1)/C(=C/Cn1cnc3ccc(Cl)cc31)c1ccccc1CO2 | 19 nM
37 | Cc1ccc2c(c1)ncn2C/C=C1\c2ccccc2COc2ccc(C(=O)O)cc21 | 110 nM
38 | Cc1cc(C)c2ncn(C/C=C3\c4ccccc4COc4ccc(C(=O)O)cc43)c2c1 | 7.6 nM
